{
  "source": "patent US20130004580A1",
  "about": "“DIVALENT CATION/TALC CONTAINING COMPOSITIONS AND METHODS FOR TREATING AND/OR PREVENTING ENZYMATIC IRRITATION” (priority 2011, published 2013)",
  "type_in_all_cases": "biochemical",
  "key": {"trypsin [1]": {"tested_on": "trypsin", "experiment": "Trypsin inhibition, EnzChek protease assay, mixtures of talc with divalent cation salts", "description": "The objective of the following experiment was to determine whether and to what extent adding a divalent cation to talc inhibited trypsin activity in an in vitro assay. The inhibition of trypsin-induced cleavage of a fluorescent casein peptide was measured using the EnzChek™ protease assay kit, following manufacturer's instructions (EnzChek™ Protease Assay Kits Product Information, Revised; Molecular Probes, Eugene Oreg.). […] Trypsin working solution (Sigma, St. Louis, Mo., unit/mL) was prepared in digestion buffer provided in the assay kit. Stock solution of BODIPY FL casein (trypsin substrate, mg/mL) was prepared by adding 0.2 mL to the substrate vials (provided in kit), and the final substrate working solution (10 microgram/mL) was prepared by dilution in digestion buffer (pH 7.8). Following incubation of the trypsin, with or without the test materials, with the BODIPY fluorescent casein substrate, at room temperature for one hour, fluorescence was measured (excitation 485 nm/emission 530 nm) using a SpectraMax microtiter plate reader (Molecular Devices Corporation, Sunnyvale, Calif.) and Softmax Pro software (Molecular Devices Corporation). Each experiment was performed in three replicates."}, "trypsin [2]": {"tested_on": "trypsin", "experiment": "Trypsin inhibition, EnzChek protease assay, zinc oxide/acid mixtures and formulations", "details": "text b134 on Table 5", "description": "The objective of the following experiment was to determine whether and to what extent adding an acid to a formulation containing zinc oxide had on inhibition of trypsin activity in an in vitro assay. The inhibition of trypsin-induced cleavage of a fluorescent casein peptide was measured using the EnzChek™ protease assay kit, following manufacturer's instructions (EnzChek™ Protease Assay Kits Product Information, Revised; Molecular Probes, Eugene Oreg.). Briefly, mixtures of zinc oxide and acid at different concentrations were prepared in 1×PBS (pH 7.4) and their pH was recorded as listed in the Tables 5-8. Trypsin working solution (Sigma, St. Louis, Mo., unit/mL) was prepared in digestion buffer provided in the assay kit. Stock solution of BODIPY FL casein (trypsin substrate, mg/mL) was prepared by adding 0.2 mL to the substrate vials (provided in kit), and the final substrate working solution (10 microgram/mL) was prepared by dilution in digestion buffer (pH 7.8). Following incubation of the trypsin, with or without the test materials (50 μl), with the BODIPY fluorescent casein substrate, at room temperature for one hour, fluorescence was measured (excitation 485 nm/emission 530 nm) using a SpectraMax microtiter plate reader (Molecular Devices Corporation, Sunnyvale, Calif.) and Softmax Pro software (Molecular Devices Corporation). Each experiment was performed in three replicates. […]"}, "trypsin [3]": {"tested_on": "trypsin", "experiment": "Trypsin inhibition, EnzChek protease assay (BODIPY FL casein cleavage), cation salts", "details": "Table 1", "description": "The inhibition of trypsin-induced cleavage of a fluorescent casein peptide was measured using the EnzChek™ protease assay kit, following manufacturer's instructions (EnzChek™ Protease Assay Kits Product Information, Revised; Molecular Probes, Eugene Oreg.). Briefly, test materials at different concentrations were prepared in 1× phosphate buffered saline (PBS, pH 7.4). Trypsin working solution (Sigma, St. Louis, Mo., unit/mL) was prepared in digestion buffer provided in the assay kit. Stock solution of BODIPY FL casein (trypsin substrate, mg/mL) was prepared by adding 0.2 mL to the substrate vials (provided in kit), and the final substrate working solution (10 microgram/mL) was prepared by dilution in digestion buffer (pH 7.8). […] Each experiment was performed in three replicates."}},
  "data": [
    {"molecule": "[Cl-].[Cl-].[Zn+2]", "note": "[Zinc chloride]", "values": [
      {"measurement": "Salt alone, trypsin inhibition activities (%)", "setting": "trypsin [1]; Table 3, 0.1% (g/mL)", "value": 81.07, "unit": "%"}
    ]},
    {"molecule": "[O]=[Zn]", "note": "[ZnO, zinc oxide]", "values": [
      {"measurement": "trypsin inhibitory activity, in words", "setting": "trypsin [2]", "value": "minimal protease activity"}
    ]},
    {"molecule": "O.O.O.O.[Cl][Fe][Cl]", "note": "[Iron (II) chloride tetrahydrate]", "values": [
      {"measurement": "Salt alone, trypsin inhibition activities (%)", "setting": "trypsin [1]; Table 3, 0.1% (g/mL)", "value": 65.07, "unit": "%"}
    ]},
    {"molecule": "[Cl-].[Cl-].[Mg+2]", "note": "[Magnesium chloride]", "values": [
      {"measurement": "Salt alone, trypsin inhibition activities (%)", "setting": "trypsin [1]; Table 3, 0.1% (g/mL)", "value": 4.75, "unit": "%"},
      {"measurement": "Salt alone, trypsin inhibition activities (%)", "setting": "trypsin [1]; Table 4, 0.1% MgCl2 (g/mL)", "value": 9.02, "unit": "%"},
      {"measurement": "With 1% Talc, trypsin inhibition activities (%)", "setting": "trypsin [1]; Table 4, 0.1% MgCl2 with 1% talc (g/mL)", "value": 25.43, "unit": "%"},
      {"measurement": "Salt alone, trypsin inhibition activities (%)", "setting": "trypsin [1]; Table 4, 0.5% MgCl2 (g/mL)", "value": 19.51, "unit": "%"},
      {"measurement": "With 1% Talc, trypsin inhibition activities (%)", "setting": "trypsin [1]; Table 4, 0.5% MgCl2 with 1% talc (g/mL)", "value": 32.84, "unit": "%"},
      {"measurement": "Salt alone, trypsin inhibition activities (%)", "setting": "trypsin [1]; Table 4, 1% MgCl2 (g/mL)", "value": 22.13, "unit": "%"},
      {"measurement": "With 1% Talc, trypsin inhibition activities (%)", "setting": "trypsin [1]; Table 4, 1% MgCl2 with 1% talc (g/mL)", "value": 40.42, "unit": "%"},
      {"measurement": "trypsin inhibitory activity, in words", "setting": "trypsin [1]; text b102 on Table 4", "value": "moderate to low levels of trypsin inhibitory activity"}
    ]},
    {"molecule": "CC(=O)[O-].CC(=O)[O-].O.[Ca+2]", "note": "[Calcium acetate monohydrate]", "values": [
      {"measurement": "Salt alone, trypsin inhibition activities (%)", "setting": "trypsin [1]; Table 3, 0.1% (g/mL)", "value": 15.31, "unit": "%"}
    ]},
    {"molecule": "CC(=O)[O-].CC(=O)[O-].[Zn+2]", "note": "[Zinc acetate dihydrate]", "values": [
      {"measurement": "Salt alone, trypsin inhibition activities (%)", "setting": "trypsin [1]; Table 3, 0.1% (g/mL)", "value": 62.84, "unit": "%"}
    ]},
    {"molecule": "copper (II) chloride [(II) chloride dihydrate]", "values": [
      {"measurement": "% trypsin inhibitory activity", "setting": "trypsin [3]; concentration 0.01% (g/mL)", "value": 64.98, "unit": "%"},
      {"measurement": "% trypsin inhibitory activity", "setting": "trypsin [3]; concentration 0.10% (g/mL)", "value": 99.34, "unit": "%"},
      {"measurement": "% trypsin inhibitory activity", "setting": "trypsin [3]; concentration 1% (g/mL)", "value": 108.34, "unit": "%"}
    ]},
    {"molecule": "CC(=O)[O-].CC(=O)[O-].O.O.O.O.[Mg+2]", "note": "[Magnesium acetate tetrahydrate]", "values": [
      {"measurement": "Salt alone, trypsin inhibition activities (%)", "setting": "trypsin [1]; Table 3, 0.1% (g/mL)", "value": 0.83, "unit": "%"}
    ]},
    {"molecule": "[Ca+2].[Cl-].[Cl-]", "note": "[Calcium chloride]", "values": [
      {"measurement": "Salt alone, trypsin inhibition activities (%)", "setting": "trypsin [1]; Table 3, 0.1% (g/mL)", "value": 17.95, "unit": "%"}
    ]}
  ]
}
